{"source": "patent US10240133B2", "about": "“ERK-derived peptides and uses thereof” (Yeda Research and Development Co. Ltd., priority 2013, dated 2019)", "key": {"HCT-116 xenograft": {"system": "HCT-116 xenograft", "assay": "Tumor xenograft growth", "format": "in vivo, CD-1 nude mice", "conditions": "i.v. tail vein, 3 times a week", "protocol": "(§1) FIGS. 6A-6B illustrate that the EPE peptide prevents the growth of human tumor xenografts. CD-1 nude mice were inoculated with MDA-MB-231, LOXIMVI and HCT-116 cells, and SKID mice were inoculated with A2352 cells. Upon tumors establishment, the mice were treated intravenously with the DMSO as well as EPE or Scr peptides in the indicated doses, 3 times a week. The results are averages of 5 mice in each experimental group. The X, Y, Z dimensions of the tumors were measured with a caliper, and the volume was calculated accordingly. The significance of all experiments was at least P<0.001. (B) The EPE peptide prevents tumor recurrence on melanoma xenograft. SCID mice were inoculated with A2352 cells. Upon establishment of tumors mice were treated intravenously with 15 mg/kg EPE peptide (n=7) or intraperitonealy with 15 mg/kg PLX4032 (n=5), at the indicated dose 3 times a week. Tumor size was recorded at the same time using a caliper. Following 3 weeks of treatment, mice were kept for further evaluation monitoring for any tumor recurrence of the effective treated melanoma xenografts. Experiment was concluded 110 days post inoculation (11 weeks after the last treatment) and the overall state of the animals was evaluated. sac=sacrificed, recur=recurrence, met=metastasis.\n(§2) Tumor dimensions were measured with a digital sliding caliper."}, "LOXIMVI xenograft": {"system": "LOXIMVI xenograft", "assay": "Tumor xenograft growth", "format": "in vivo, CD-1 nude mice", "conditions": "i.v. tail vein, 3 times a week", "protocol": "as §1, §2"}, "MDA-MB-231 xenograft": {"system": "MDA-MB-231 xenograft", "assay": "Tumor xenograft growth", "format": "in vivo, CD-1 nude mice", "conditions": "i.v. tail vein, 3 times a week", "protocol": "as §1, §2"}, "Elk1": {"system": "Elk1", "assay": "Western blotting of Elk1 phosphorylation", "format": "cell-based", "conditions": "varied among the cell lines; EPE vs scrambled after TPA", "protocol": "(§3) (A) EPE peptide prevents ERK1/2-importin7 interaction. HeLa cells were serum starved (0.1%, 16 hours), pretreated with EPE peptide, scrambled peptide (10 μM, 2 hours) or DMSO, and then stimulated with TPA (250 nM, 15 min). ERK1 were precipitated with αgERK1 Ab; importin7 co-immunoprecipitated with ERK1 was detected by WB with αimportin7 Ab. […] T47D, HeLa, MDA-MB-231 and A2352 cells were serum starved (0.1%, 16 hours), pretreated with EPE peptide, scrambled peptide (10 μM, 2 hours) or DMSO control, and then stimulated with TPA (250 nM, indicated times). Cell extracts were subjected to Western blot analysis with the indicated Abs. (C) EPE peptide inhibits phosphorylation of c-Myc and Elk1 in B-Raf melanomas. A2158 and A2352 cells were treated with scrambled and EPE peptide for two hours and then stimulated with the indicated concentration of TPA for 30 min. […] (D) Quantification of some of the results in B and C. […]\n(§4) (i) Preparation of cellular extracts for Western Blotting: Cells were rinsed twice with ice-cold PBS and scraped into Radio-immunoprecipitation assay buffer (RIPA; 137 mM NaCl, 20 mM Tris (pH 7.4), 10% glycerol, 1% Triton X-100, 0.5% deoxycholate, 0.1% SDS, 2 mM EDTA, 1 mM PMSF, and 20 μM leupeptin). The extracts were centrifuged (20,000×g, 15 min, 4° C.), and the supernatants were further analyzed by Western blotting. […]"}, "[1]": {"system": "non-transformed melanocytes (NHEM-Ad)", "assay": "Cell viability, EPE peptide compared with PLX4032", "format": "cell-based", "conditions": "EPE 10 μM, PLX4032 1 μM, 1% FCS", "protocol": "FIGS. 3A-3B illustrate that EPE peptide prevents proliferation of cancer but not normal cells. (A) Effect of the EPE peptide on the proliferation of various cell lines. Sixteen cancer and four “normal” immortalized cell lines were treated with either EPE or scrambled peptides as described above. Viable cells were assayed by Methylene Blue at 48 or 72 hours after cell seeding. The data from at least three independent experiments is presented as percent of the amount of viable cells/initial cell number, where initial cell number was considered as 100. (B) Comparison of the effects of the EPE-peptide and Raf inhibitor PLX4032 on cell viability. NHEM-Ad, LOXIMVI, A2352, Hela MDA-MB-231, and DU-145 cells were treated with EPE peptide, scrambled peptide, (10 μM), PLX4032 (1 μM), DMSO control, or no treatment at 1% FCS. The number of cells was detected as above. The graphs present the kinetic of cell growth at the indicated times. All experiments were repeated 3 times in triplicates.\nAll cells, except of MCF-10A, were seeded into 12-well cell plates in 1% FBS medium. MCF-10A cells were seeded in their complete medium diluted 5 fold. DMSO, Scr peptide, EPE peptide, or U0126 (final concentration of 10 μM each) were added to the appropriated wells four hours later. Every day medium was changed to fresh one containing the same agents. The number of viable cells was measured by Methylene Blue assay at 72 h after cell seeding. Shortly, cells were fixed with 4% Formaldehyde for 2 h at 23° C., washed once with 0.1M Borate Buffer pH 8.5 and stained with of 1% Methylene Blue in 0.1M Borate Buffer for 10 min. Color was extracted by adding 0.1 M HCl for 3 h at 23° C., and examined at 595 nm. For time course experiments, viable cells were measured at 0, 24, 48, 72 and 96 h after cell seeding. For dose response experiments we treaded the cells with 0.1, 1, 3, 10, or 30 μM of peptides for 72 h, as described above."}, "[2]": {"assay": "Systemic toxicity in xenograft-bearing mice (body weight, organ histology)", "conditions": "treated animals, end of experiment", "quoted_text": "Female SCID mice (Harlan), 5-6 weeks of age, were inoculated s.c. into the flank region with 10^7 A2352 cells in 150 μl mixture of PBS with matrigel (2:1). Tumors were allowed to develop to the size of 5-6.5 mm in diameter (50˜110 mm^3 volume) and then the animals were randomly allocated to different treatment groups. The peptides (100 mM stock in DMSO), were diluted to the necessary concentration in PBS and boiled for 5 minutes. Then, DMSO, Scr or EPE peptides were administered by i.v. injection into the tail vein (150 μl/mouse, 3 times a week). Tumor dimensions were measured with a digital sliding caliper. Tumor volume was calculated using the formula: V=D1×D2×D3×π/6, where D1, D2, D3—represent the three mutually orthogonal growth diameters. To assess any signs of systemic toxicity, body weight was monitored, and recorded at the end of the experiment.\nTumor xenografts, lungs, livers, kidneys and hearts of animals from different treatment groups were removed and subjected for histological analysis by staining of 5 μm paraffin embedded tissue slides with H&E, and examination by light microscope. […] Briefly, paraffin embedded blocks of tumors after different treatments were cut at 4 μm thickness and stained with ERK Abs, followed by second antibodies conjugated to peroxidase and DAB staining. Representative fields of each specimen were photographed at ×20 and ×40 magnifications."}, "c-Myc": {"system": "c-Myc", "assay": "Western blotting of c-Myc phosphorylation", "format": "cell-based", "conditions": "A2158 and A2352 B-Raf melanomas", "protocol": "as §3, §4"}}}
{"sequence": "GQLNHILGILGEPEQED (Synthetic peptide (EPE)) [EPE peptide, NTS-derived peptide with phosphomimetic EPE motif]", "values": [{"measurement": "growth of tumor xenograft", "setting": "HCT-116 xenograft", "value": "to some extent"}, {"measurement": "growth of tumor xenograft", "setting": "LOXIMVI xenograft", "value": "dose dependent inhibition of the growth"}, {"measurement": "growth of tumor xenograft", "setting": "MDA-MB-231 xenograft", "value": "dose dependent inhibition of the growth"}, {"measurement": "inhibition of phosphorylation of Elk1", "setting": "Elk1", "value": "20-45%"}, {"measurement": "viability", "setting": "[1]", "value": "does not have any significant effect"}, {"measurement": "change in weight, organ morphology or other toxicity-related effects", "setting": "[2]", "value": "None of the animal treated exhibited any significant change"}, {"measurement": "phosphorylation of c-Myc", "setting": "c-Myc", "value": "did inhibit"}]}
